This passage reports melting point results from a melting point compilation (Tetko et al.; mined from patent text by program, amines drawn as free bases though some values may be those of a salt).

With `COC(=O)NC(C)(C(=O)NS(=O)(=O)c1ccc(C)cc1)C(C)C` (stereo not drawn), the melting point lay in the range of 120 to 122 °C.
Take `CC1Oc2ccc(CN3CCN(c4ccc(C#N)cc4)CC3)cc2NC1=O` (stereo not drawn): the melting point was in the range of 266 to 268 °C.
Compound `COc1c(C2CCN(CCCCNC(=O)c3ccc(-c4ccc(NS(C)(=O)=O)cc4)cc3)CC2)ccc2c1CCCC2` gave a melting point of 200 to 202 °C.
The result for `Nc1nc2ccccc2c2c1ncn2CCOCC#Cc1ccc(Oc2ccccc2)cc1` reads 146 to 148 °C; that for `COC(=O)CCC(=O)Nc1cccc(COc2ccc(C(C)=O)c(OC)c2)c1`, 124 °C.
The compound `Cn1cc(C2=C(c3c4n(c5ccccc35)CC(NC(=O)OC(C)(C)C)CC4)C(=O)NC2=O)c2ccccc21` (stereo not drawn) showed a melting point of 159 to 163 °C.
For the compound `NC(=O)NN=Cc1ccc(Cc2ccccc2)cc1`, the melting point was 118 to 120 °C.
For `CC=CCn1c(C)c(C)c2cnnc(OCc3ccco3)c21`, the melting point lay in the range of 84 to 85 °C.
In turn, `CCCCCCCCCCC(O)CNC` (stereo not drawn) came in with a melting point of 56 to 57 °C.
Under `CC(C)(O)C#Cc1c(F)c(F)c(-c2c(F)c(F)c(C#CC(C)(C)O)c(F)c2F)c(F)c1F` stands 119 to 121 °C.
In turn, `COc1ccc(CN2CCc3cc(O)ccc3C2)cc1OC` returned a melting point of 119 to 122 °C.
In the case of `CCN(CC)C(=O)c1cc(C(C)(C)C)c(OC(=O)c2cc(C(C)(C)C)c(O)c(C(C)(C)C)c2)c(C(C)(C)C)c1`, the melting point lay in the range of 203 to 205 °C.
`CCNC(=O)c1cccc(NC(=O)c2nnn(Cc3ccc(Cl)c(Cl)c3)c2C)c1` had a melting point of 192 °C.
Under `O=C(Nc1ccccc1Cl)N1CCc2cc(S(=O)(=O)N3CCN(c4cccc(Cl)c4)CC3)ccc21` stands 205 to 206 °C.
In turn, `Cc1cccc(NC(=O)C2=C(O)c3ccc4ccccc4c3S(=O)(=O)N2C)c1` displayed a melting point of 240 to 242 °C.
`CCCn1c(=O)c2[nH]c(-c3ccc(C#N)cc3)nc2n(C)c1=O`: the melting point was 314 to 318 °C.
For `Cc1cc(Nc2ccc(Cl)cc2)nc(-n2cc3ccccc3n2)n1`, the melting point fell in the range of 225 to 227 °C.
Take `CCOC(=O)C(CCc1ccc2c(c1)OCO2)(Cc1cc(OC)c(OC)c(OC)c1)C(=O)OCC`: the melting point lay within 79.5 to 81 °C.
`CCOC(=O)Cc1ccc(-c2nc(COc3ccc(COc4nn(-c5ccccc5)cc4/C=C\c4csc(CC)n4)cc3OC)c(C)o2)cc1` came in with a melting point of 136 to 137 °C.
The compound `Cc1ccn2cc(CS)nc2c1` showed a melting point of 164 to 168 °C.
On to `C=Cc1ccc(CN2CCN(Cc3ccc(C=C)cc3)CCN(Cc3ccc(C=C)cc3)CC2)cc1`, for which the melting point lay within 71 to 73 °C.
Regarding `FC(F)(F)C1(c2cc(Cl)cc(Cl)c2)CC(c2ccc(Br)nc2)=NO1` (stereo not drawn), the melting point lay within 147 to 148 °C.
`CC(=O)Nc1nc(C)c(S(=O)(=O)NC(CO)CO)s1`: the melting point was 217 °C.
As to `COC(=O)c1cncc(OCc2nc(-c3ccccc3)oc2C)c1`, the melting point lay within 119 to 120 °C.
As for `CC(C)S(=O)(=O)c1cc(OCc2ccc(S(C)(=O)=O)cn2)c2[nH]nc(Nc3nccs3)c2c1`, the melting point was in the range of 160 to 161 °C.
The compound `O=C(Nc1ccc(CCN2CCCCC2)cc1)C1=Cc2cc(-c3ccccc3)ccc2CC1` registered a melting point of 157 to 159 °C.
For `Cc1ccc(S(=O)(=O)OCC2CCc3nc(C)sc3C2)cc1` (stereo not drawn), the melting point lay in the range of 70 to 71 °C.
On to `OCCNCCOc1ccc(C2=C(c3ccccc3)CCCc3cc(O)ccc32)cc1`, for which the melting point was 176 to 178 °C.
Turning to `NS(=O)(=O)c1ccc(-c2cnn(CC(F)(F)F)c(=O)c2Oc2ccc(F)cc2)cc1`, the melting point was 150 to 152 °C.
`CN(c1cccc2cc(-c3ncc(CCc4nn[nH]n4)s3)[nH]c12)S(=O)(=O)c1cccs1` came in with a melting point of 211 to 212 °C.
`CC(C)(C)c1cc(N2CCCC2=O)cc(C(C)(C)C)c1O`: the melting point lay within 173 to 175 °C.
For `CC(C)(C)OC(=O)Nc1ccc(Br)cc1`, the melting point fell in the range of 101 to 103 °C.
The result for `CCN1C=C(N=[N+]=[N-])N=C(C2CC2)c2ccccc21` reads 158 to 160 °C.
The result for `CCNC(=O)c1c(Cl)cccc1[Si](C)(C)C1CCCCC1` reads 111 to 113 °C; that for `CP(=O)(O)CC(=O)CN`, 148 to 149 °C; that for `CN1CCC(c2ccc(Oc3ccccc3)cc2)(C(C)(C)O)CC1`, 148 °C.
With `COc1ccc(SC)c2c1CC(=O)CC2`, the melting point fell in the range of 88 to 90 °C.
Take `CCOC(=O)CCCN(O)C(=O)NCCc1ccc(OC)c(OC)c1`: the melting point was in the range of 75 to 76 °C.
The compound `Cc1cc(C(C)N(O)C(N)=O)ccc1OC(C)c1ccccc1` (stereo not drawn) had a melting point of 133 to 135 °C.
`COC(=O)Oc1c(Cl)c(-c2ccc(Cl)cc2)oc(=O)c1-c1c(C)cc(C)cc1C` yielded a melting point of 136 to 138 °C.
`C=CCOC(=O)c1c(C)nc2c(cnn2Cc2ccccc2)c1N`: the melting point worked out at 108 °C.
`O=C(NC1CCN(CCCCl)CC1)c1ccccc1`: the melting point lay in the range of 145 to 147 °C.
The result for `CC(=O)N1CCN(c2cccc(-n3cnc4cc(C(C)O)ccc43)c2)CC1` (stereo not drawn) reads 126 °C.
In the case of `O=C(c1ccccc1)c1ccc2n1CCCCC2C(=O)O` (stereo not drawn), the melting point lay in the range of 163 to 165 °C.
Compound `O=C(c1cccnc1)N1N=CCC1c1ccccc1` (stereo not drawn) showed a melting point of 100 to 102 °C.
Compound `N#CC1c2cccc(Br)c2C=CN1C(=O)c1ccccc1` (stereo not drawn) had a melting point of 177 to 178 °C.
`CN1CCN(CCc2ccc(Nc3ncc4c(n3)-c3ccccc3C(c3ccccc3C(F)(F)F)C4)cc2)CC1` (stereo not drawn) had a melting point of 157 to 158 °C.
For `Cc1ccc(-n2nc(O)c3[nH]c4cc(Cl)ccc4c(=O)c3c2=O)cc1`, the melting point lay within 368 to 370 °C.
Compound `Cc1c(C#N)c(N)nc(Cl)c1C#N` registered a melting point of 210 °C.
The result for `Fc1ccc(Cn2c(NC3CCN(CCOc4nccs4)CC3)nc3ccccc32)cc1` reads 156 °C.
Compound `CCOC(=O)C1=C(C)NC(C)=C(C(=O)OCCSC(C)=O)C1c1cccc([N+](=O)[O-])c1` (stereo not drawn) yielded a melting point of 98 to 101 °C.
Under `CCOc1ccc2c(c1)C(C)=CC(C)(C)N2C1O[C@H](COC(C)=O)[C@@H](OC(C)=O)[C@H](OC(C)=O)[C@H]1OC(C)=O` (stereo partly drawn) stands 180 to 181 °C; under `Cc1nsc(N(C)C(=O)C2CCCCC2)n1`, 96 °C.
The result for `COC(=O)c1c(CC#N)ncn1C1OC(COC(C)=O)C(OC(C)=O)C1OC(C)=O` (stereo not drawn) reads 92 to 93 °C; that for `CN(C)c1cccc2c(S(=O)(=O)Nc3ncc(Cl)cc3Cl)cccc12`, 161 to 163 °C; that for `O=C(CCl)Nc1ccc2cc3ccc(NC(=O)CCl)cc3nc2c1`, 95 to 100 °C.
Compound `CCOP(=O)(CC(N)=S)OCC` yielded a melting point of 73 to 75 °C.
With `O=C(CBr)c1ccc(Cl)c(Cl)c1Cl`, the melting point was 44 to 46 °C.
The result for `COc1c(-c2cc3c(s2)CCC(O)C3)ccc2c(=O)c(C(=O)O)cn(C3CC3)c12` (stereo not drawn) reads 232 to 233 °C; that for `COc1ccc2c(c1)c1c(n2C)C2(C)CCC(=O)N2CC1` (stereo not drawn), 164 to 167 °C.
Regarding `O=[N+]([O-])c1ccc(Sc2cc(Br)nc(Br)c2)cc1`, the melting point lay in the range of 166 to 168 °C.
Regarding `CC(=O)Nc1ccc2c(c1)C(=O)N(CCO)CO2`, the melting point was in the range of 155 to 156 °C.
As for `CCC(=O)NCCC1CCc2ccc3nc(C)oc3c21` (stereo not drawn), the melting point was 111 to 113 °C.

A word on the melting point: it is the temperature, or range, at which the solid turns liquid.
